Where “and” joins values, the source holds several entries; their conditions need not be identical. Equal values may be shown once. Toxic doses and inconclusive results are not listed. Rule as the data show it: active = T/C of 150% or more; inactive = T/C below 125%.
Tested on: L1210 leukemia ip in BDF1 mice, survival T/C
Experiment: NCI In Vivo Anticancer Drug Screen. Data for tumor model L1210 Leukemia (intraperitoneal) in B6D2F1 (BDF1) mice
Details: endpoint: mean survival time, higher = longer survival
In short: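 Transplanted-tumor mice were given test agent; controls received vehicle only. Survival readings from the two groups were divided (treated over control).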

[1] = dose: 100.0 mg/kg/injection, schedule: Q04DX003 (ip), vehicle: saline
[2] = dose: 200.0 mg/kg/injection, schedule: Q01DX009 (ip), vehicle: saline
[3] = dose: 200.0 mg/kg/injection, schedule: Q04DX003 (ip), vehicle: saline
[4] = dose: 400.0 mg/kg/injection, schedule: Q01DX009 (ip), vehicle: saline
[5] = dose: 400.0 mg/kg/injection, schedule: Q04DX003 (ip), vehicle: saline
[6] = dose: 25.0 mg/kg/injection, schedule: Q01DX009 (ip), vehicle: Klucel (hydroxypropylcellulose) (HPC)
[7] = dose: 50.0 mg/kg/injection, schedule: Q01DX009 (ip), vehicle: Klucel (hydroxypropylcellulose) (HPC)
[8] = dose: 100.0 mg/kg/injection, schedule: Q01DX009 (ip), vehicle: Klucel (hydroxypropylcellulose) (HPC)
[9] = dose: 100.0 mg/kg/injection, schedule: Q04DX003 (ip), vehicle: Klucel (hydroxypropylcellulose) (HPC)
[10] = dose: 200.0 mg/kg/injection, schedule: Q01DX009 (ip), vehicle: Klucel (hydroxypropylcellulose) (HPC)
[11] = dose: 100.0 mg/kg/injection, schedule: Q01DX009 (ip), vehicle: saline with Tween-80
[12] = dose: 200.0 mg/kg/injection, schedule: Q01DX009 (ip), vehicle: saline with Tween-80
[13] = dose: 100.0 mg/kg/injection, schedule: Q04DX003 (ip), vehicle: saline with Tween-80
[14] = dose: 200.0 mg/kg/injection, schedule: Q04DX003 (ip), vehicle: saline with Tween-80
[15] = dose: 400.0 mg/kg/injection, schedule: Q04DX003 (ip), vehicle: saline with Tween-80
[16] = dose: 100.0 mg/kg/injection, schedule: Q01DX001 (ip), vehicle: saline
[17] = dose: 200.0 mg/kg/injection, schedule: Q01DX001 (ip), vehicle: saline
[18] = dose: 50.0 mg/kg/injection, schedule: Q01DX009 (ip), vehicle: saline
[19] = dose: 100.0 mg/kg/injection, schedule: Q01DX009 (ip), vehicle: saline

Measured: T/C

COc1ccc(CN(CCO)S(C)(=O)=O)cc1
inactive: [1] 91 % of control | [2] 96 % of control | [3] 96 % of control | [4] 88 % of control | [5] 100 % of control

CC(C)C1=CC23CCC4C(C)(C(=O)O)CCCC4(C)C2CC1C1C(=O)OC(=O)C13 (centres undefined)
inactive: [6] 106 % of control | dose: 25.0 mg/kg/injection, schedule: Q04DX003 (ip), vehicle: Klucel (hydroxypropylcellulose) (HPC) 103 % of control | [7] 102 % of control | dose: 50.0 mg/kg/injection, schedule: Q04DX003 (ip), vehicle: Klucel (hydroxypropylcellulose) (HPC) 101 % of control | [8] 102 % of control | [9] 95 % of control | [10] 91 % of control

CCOC(=O)NC(C)c1cccc2ccccc12 (centres undefined)
inactive: [9] 93 % of control | dose: 200.0 mg/kg/injection, schedule: Q04DX003 (ip), vehicle: Klucel (hydroxypropylcellulose) (HPC) 97 % of control | dose: 400.0 mg/kg/injection, schedule: Q04DX003 (ip), vehicle: Klucel (hydroxypropylcellulose) (HPC) 90 % of control

COCC(C)C=O (centres undefined)
inactive: dose: 50.0 mg/kg/injection, schedule: Q01DX009 (ip), vehicle: saline with Tween-80 91 % of control | [11] 91 % of control | [12] 94 % of control

CCCCCCCCOC(=O)Nc1ccc(S(=O)(=O)N(C)C)cc1
inactive: dose: 100.0 mg/kg/injection, schedule: Q01DX001 (ip), vehicle: carboxymethylcellulose (CMC) 98 % of control | dose: 200.0 mg/kg/injection, schedule: Q01DX001 (ip), vehicle: carboxymethylcellulose (CMC) 97 % of control | dose: 400.0 mg/kg/injection, schedule: Q01DX001 (ip), vehicle: carboxymethylcellulose (CMC) 89 % of control

CNC(=O)Nc1ccncc1
inactive: [13] 96 % of control | [14] 102 % of control | [15] 91 % of control

O=[N+]([O-])c1cc(S(=O)(=O)N2CCCC2)ccc1N1CCCC1
inactive: [1] 100 % of control | [3] 96 % of control | [5] 105 % of control

O=C(c1ccc(-c2ccccc2)cc1)C(Br)CCBr (centres undefined)
inactive: [13] 106 % of control | [14] 93 % of control

CC(=O)C1(C)C(=O)N(S(=O)(=O)c2ccc(C)cc2)C(=O)N1S(=O)(=O)c1ccc(C)cc1 (centres undefined)
inactive: [16] 91 % of control | [17] 89 % of control | dose: 400.0 mg/kg/injection, schedule: Q01DX001 (ip), vehicle: saline 100 % of control

OC(CNc1ccc(Cl)cc1)CN1CCOCC1 (centres undefined)
inactive: [1] 96 % of control | [3] 89 % of control

O=[N+]([O-])c1ccc(NCc2ccccc2)c2nonc12
inactive: [18] 113 % of control | [19] 98 % of control | [2] 113 % of control

O=C1C=CC(=Nc2cc(Cl)c(O)c(Cl)c2)C(Cl)=C1
inactive: dose: 12.5 mg/kg/injection, schedule: Q01DX009 (ip), vehicle: Klucel (hydroxypropylcellulose) (HPC) 96 % of control | [6] 96 % of control | [7] 92 % of control

CCOC(=O)C(=CNc1ccccc1)C(=O)OCC
inactive: [8] 97 % of control | [10] 90 % of control | dose: 400.0 mg/kg/injection, schedule: Q01DX009 (ip), vehicle: Klucel (hydroxypropylcellulose) (HPC) 97 % of control

CC(=O)Nc1ccc(N=C(N)c2ccc(C(N)=Nc3ccc(NC(C)=O)cc3)cc2)cc1
inactive: dose: 62.0 mg/kg/injection, schedule: Q01DX015 (ip), vehicle: methylcellulose (MC) 98 % of control | dose: 125.0 mg/kg/injection, schedule: Q01DX015 (ip), vehicle: methylcellulose (MC) 86 % of control | dose: 250.0 mg/kg/injection, schedule: Q01DX015 (ip), vehicle: methylcellulose (MC) 91 % of control | dose: 500.0 mg/kg/injection, schedule: Q01DX015 (ip), vehicle: methylcellulose (MC) 86 % of control

CN(C)[C@@H]1C(=O)C(C(=O)NCNC(Cc2ccc(N(CCCl)CCCl)cc2)C(=O)O)=C(O)[C@@]2(O)C(=O)C3=C(O)c4c(O)cccc4[C@@](C)(O)[C@H]3C[C@@H]12 (some centres undefined)
inactive: dose: 1.3 mg/kg/injection, schedule: Q01DX009 (ip), vehicle: other 114 % of control | dose: 4.69 mg/kg/injection, schedule: Q01DX009 (ip), vehicle: saline 121 % of control | dose: 5.0 mg/kg/injection, schedule: Q01DX001 (ip), vehicle: saline 96 % of control | dose: 9.0 mg/kg/injection, schedule: Q01DX001 (ip), vehicle: saline 109 % of control | dose: 19.0 mg/kg/injection, schedule: Q01DX001 (ip), vehicle: saline 102 % of control | dose: 38.0 mg/kg/injection, schedule: Q01DX001 (ip), vehicle: saline 123 % of control | dose: 75.0 mg/kg/injection, schedule: Q01DX001 (ip), vehicle: saline 122 % of control | dose: 75.0 mg/kg/injection, schedule: Q01DX009 (ip), vehicle: saline 102 % of control
active: dose: 6.6 mg/kg/injection, schedule: Q01DX009 (ip), vehicle: other 152 % of control | dose: 10.0 mg/kg/injection, schedule: Q01DX009 (ip), vehicle: other 173 % of control | dose: 18.0 mg/kg/injection, schedule: Q01DX009 (ip), vehicle: other 189 % of control | dose: 18.95 mg/kg/injection, schedule: Q01DX009 (ip), vehicle: saline 162 % of control | dose: 30.0 mg/kg/injection, schedule: Q01DX001 (ip), vehicle: other 156 % of control | dose: 37.5 mg/kg/injection, schedule: Q01DX009 (ip), vehicle: saline 166 % of control | dose: 44.0 mg/kg/injection, schedule: Q01DX001 (ip), vehicle: other 152 % of control and 164 % of control | dose: 67.0 mg/kg/injection, schedule: Q01DX001 (ip), vehicle: other 173 % of control | dose: 100.0 mg/kg/injection, schedule: Q01DX001 (ip), vehicle: other 191 % of control

COC(=O)C(c1ccccc1)C1CCCCN1 (centres undefined)
inactive: dose: 6.25 mg/kg/injection, schedule: Q01DX009 (ip), vehicle: saline 105 % of control | dose: 12.5 mg/kg/injection, schedule: Q01DX009 (ip), vehicle: saline 98 % of control | dose: 25.0 mg/kg/injection, schedule: Q01DX009 (ip), vehicle: saline 96 % of control | dose: 25.0 mg/kg/injection, schedule: Q04DX003 (ip), vehicle: saline 97 % of control | [18] 100 % of control | dose: 50.0 mg/kg/injection, schedule: Q04DX003 (ip), vehicle: saline 97 % of control | [1] 108 % of control

O=C1c2ccccc2C(=O)N1Cc1cccc(Nc2cc(=O)[nH]c(=O)[nH]2)c1
inactive: dose: 200.0 mg/kg/injection, schedule: Q01DX001 (ip), vehicle: saline with Tween-80 95 % of control

CC12CCC3C(CCC4CC(O)CCC43C)C1CCCC2=O (centres undefined)
inactive: dose: 75.0 mg/kg/injection, schedule: Q04DX003 (sc), vehicle: steriod suspending solution 102 % of control | dose: 150.0 mg/kg/injection, schedule: Q04DX003 (sc), vehicle: steriod suspending solution 93 % of control | dose: 300.0 mg/kg/injection, schedule: Q04DX003 (sc), vehicle: steriod suspending solution 91 % of control

CCN(Cc1ccccc1)c1cc(=O)[nH]c(=O)[nH]1
inactive: dose: 48.0 mg/kg/injection, schedule: Q01DX001 (ip), vehicle: Klucel (hydroxypropylcellulose) (HPC) 100 % of control | dose: 96.0 mg/kg/injection, schedule: Q01DX001 (ip), vehicle: Klucel (hydroxypropylcellulose) (HPC) 102 % of control | dose: 192.0 mg/kg/injection, schedule: Q01DX001 (ip), vehicle: Klucel (hydroxypropylcellulose) (HPC) 97 % of control

CSc1nc(N)nc2c1nnn2C1OC(CO)C(O)C1O (centres undefined)
inactive: [16] 105 % of control | [17] 105 % of control

CCc1cccc(CC)c1NC(=O)NS(=O)(=O)c1ccccc1
inactive: [11] 91 % of control | [12] 88 % of control

Cc1ccc(NC(=O)Nc2cccc(Cl)c2C)cc1NC(=O)Nc1cccc(Cl)c1C
inactive: [11] 87 % of control | [13] 90 % of control | [12] 87 % of control | [14] 91 % of control | dose: 400.0 mg/kg/injection, schedule: Q01DX009 (ip), vehicle: saline with Tween-80 86 % of control | [15] 91 % of control

O=[N+]([O-])c1cccc(N=Cc2ccc3c(c2)OCO3)c1
inactive: [19] 96 % of control | [2] 93 % of control | [4] 100 % of control

CN(C)C(=O)Nc1cccc(OC(=O)NC2CCCCCCC2)c1
inactive: [13] 91 % of control | [14] 100 % of control | [15] 96 % of control

— PubChem BioAssay AID248 (DTP/NCI, 2004)
